# According to patent US9018208B2, “Heterocycles as potassium channel modulators” (Icagen Inc., priority 2007, dated 2015):
# pEC50: −log10 of the molar value. Like-named read-outs stand apart in the source and are kept apart here.
# Tested on: SH-SY5Y M-currents (KCNQ2, KCNQ3 and KCNQ5)
# Assay: SH-SY5Y native cell line FLIPR assay (voltage-sensitive dye DiBAC)
# Type: cell-based, mouse neuroblastoma, rat glioma hybrid cell line
# Conditions: SH-SY5Y native cell line, read-out: SH-SY5Y EC50
# Method in brief: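 Response is peak DiBAC fluorescence change, normalised to the maximum from a positive control agent, sampled every 30 s over 25 min. Before compound addition, SH-SY5Y cells differentiated with PGE1 plus isomethylbutylxanthine were dye-loaded for 1 h in EBSS with […] DiBAC.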
SMILES,"pEC50 (FLIPR assay, Table 2)",further results
"CC(C)(C)CC(=O)Nc1nc2ccc(C(F)(F)F)cn2c1-c1nc2ccccc2s1 [Compound 376, N-(3-(benzo[d]thiazol-2-yl)-6-(trifluoromethyl)imidazo[1,2-a]pyridin-2-yl)-3,3-dimethylbutanamide]",,pEC50 (FLIPR assay (Table 3)): > 6.30
"O=C(Nc1nc2ccccn2c1-c1nccs1)C1CCC(F)(F)CC1 [Compound 409, 4,4-difluoro-N-(3-(thiazol-2-yl)imidazo[1,2-a]pyridin-2-yl)cyclohexanecarboxamide]",,pEC50 (FLIPR assay (Table 3)): 5.52 to 6.30
"CC(C)(C)CC(=O)Nc1nc2ccc(C(F)(F)F)cn2c1-c1ccc(F)cc1 [Compound 120, N-(3-(4-fluorophenyl)-6-(trifluoromethyl)imidazo[1,2-a]pyridin-2-yl)-3,3-dimethylbutanamide]",> 6.30,
"O=C(Cc1ccc(F)cc1)Nc1nc2ccc(F)cn2c1Cc1ccc(F)cc1 [Compound 18, N-(6-fluoro-3-(4-fluorobenzyl)imidazo[1,2-a]pyridin-2-yl)-2-(4-fluorophenyl)acetamide]",,"pEC50 (FLIPR assay, Table 1): > 6.30"
"O=C(Cc1ccc(F)cc1)Nc1nc2ccc(F)cn2c1-c1ccc(C(F)(F)F)cc1 [Compound 126, N-(6-fluoro-3-(4-(trifluoromethyl)phenyl)imidazo[1,2-a]pyridin-2-yl)-2-(4-fluorophenyl)acetamide]",5.52 to 6.30,
"CC(C)C(C)C(=O)Nc1nc2ccc(F)cn2c1-c1ccc(F)cc1 (stereo not shown) [Compound 162, N-(6-fluoro-3(4-fluorophenyl)imidazo[1,2-a]pyridin-2-yl)-2,3-dimethylbutanamide]",5.52 to 6.30,
"CC(C)(C)Cc1c(NC(=O)CC2CCCC2(F)F)nc2ccc(C(F)(F)F)cn12 (stereo not shown) [Compound 71, 2-(2,2-difluorocyclopentyl)-N-(3-neopentyl-6-(trifluoromethyl)imidazo[1,2-a]pyridin-2-yl)acetamide]",,"pEC50 (FLIPR assay, Table 1): > 6.30"
"O=C(Nc1nc2ccc(F)cn2c1-c1cc(C(F)(F)F)ccn1)C1CCC(F)(F)CC1 [Compound 402, 4,4-difluoro-N-(6-fluoro-3-(4-(trifluoromethyl)pyridin-2-yl)imidazo[1,2-a]pyridin-2-yl)cyclohexanecarboxamide]",,pEC50 (FLIPR assay (Table 3)): > 6.30
"O=C(Cc1ccc(F)cc1)Nc1nc2ccc(F)cn2c1-c1ccc(F)cc1 [Compound 102, N-(6-fluoro-3-(4-fluorophenyl)imidazo[1,2-a]pyridin-2-yl)-2-(4-fluorophenyl)acetamide]",> 6.30,
"O=C(Cc1ccccc1)Nc1nc2ccc(C(F)(F)F)cn2c1CC1CCCCC1 [Compound 37, N-(3-(cyclohexylmethyl)-6-(trifluoromethyl)imidazo[1,2-a]pyridin-2-yl)-2-phenylacetamide]",,"pEC50 (FLIPR assay, Table 1): > 6.30"
"Cc1ccc2nc(NC(=O)CC(C)(C)C)c(-c3nc4ccccc4s3)n2n1 [Compound 382, N-(3-(benzo[d]thiazol-2-yl)-6-methylimidazo[1,2-b]pyridazin-2-yl)-3,3-dimethylbutanamide]",,pEC50 (FLIPR assay (Table 3)): 5.00 to 5.52
"CC(CC(=O)Nc1nc2ccc(C(F)(F)F)cn2c1-c1cc(C(F)(F)F)ccn1)C(F)(F)F (stereo not shown) [Compound 399, 4,4,4-trifluoro-3-methyl-N-(6-(trifluoromethyl)-3-(4-(trifluoromethyl)pyridin-2-yl)imidazo[1,2-a]pyridin-2-yl)butanamide]",,pEC50 (FLIPR assay (Table 3)): 5.52 to 6.30
"CC(C)(C)Cc1c(NC(=O)Cc2ccc(Cl)cc2)nc2ccc(C(F)(F)F)cn12 [Compound 27, 2-(4-chlorophenyl)-N-(3-neopentyl-6-(trifluoromethyl)imidazo[1,2-a]pyridin-2-yl)acetamide]",,"pEC50 (FLIPR assay, Table 1): > 6.30"
"CC(C)(C)CC(=O)Nc1nc2ccc(F)cn2c1-c1cccc(Cl)c1 [Compound 149, N-(3-(3-chlorophenyl)-6-fluoroimidazo[1,2-a]pyridin-2-yl)-3,3-dimethylbutanamide]",> 6.30,
"CC(CC(=O)Nc1nc2ccc(F)cn2c1-c1nc2ccccc2s1)C(F)(F)F (stereo not shown) [Compound 374, N-(3-(benzo[d]thiazol-2-yl)-6-fluoroimidazo[1,2-a]pyridin-2-yl)-4,4,4-trifluoro-3-methylbutanamide]",,pEC50 (FLIPR assay (Table 3)): 5.00 to 5.52
"CO[C@@H](C(=O)Nc1nc2ccc(F)cn2c1-c1ccc(OC(F)(F)F)cc1)c1ccccc1 [Compound 253, (R)—N-(6-fluoro-3-(4-(trifluoromethoxy)phenyl)imidazo[1,2-a]pyridin-2-yl)-2-methoxy-2-phenyl acetamide]",5.00 to 5.52,
"CC(C)(CO)CC(=O)Nc1nc2ccc(F)cn2c1-c1ccc(OC(F)(F)F)cc1 [Compound 192, N-(6-fluoro-3-(4-(trifluoromethoxy)phenyl)imidazo[1,2-a]pyridin-2-yl)-4-hydroxy-3,3-dimethylbutanamide]",5.52 to 6.30,
"CCC(C)CC(=O)Nc1nc2ccc(C(F)(F)F)cn2c1CC(C)(C)C (stereo not shown) [Compound 58, 3-methyl-N-(3-neopentyl-6-(trifluoromethyl)imidazo[1,2-a]pyridin-2-yl)pentanamide]",,"pEC50 (FLIPR assay, Table 1): > 6.30"
"Cc1ccc2nc(NC(=O)Cc3ccc(F)cc3)c(-c3nc4ccccc4s3)n2n1 [Compound 385, N-(3-(benzo[d]thiazol-2-yl)-6-methylimidazo[1,2-b]pyridazin-2-yl)-2-(4-fluorophenyl)acetamide]",,pEC50 (FLIPR assay (Table 3)): 5.00 to 5.52
"C[C@@H](CC(=O)Nc1nc2ccc(C(F)(F)F)cn2c1C1CC1)C(F)(F)F [Compound 90, (S)—N-(3-cyclopropyl-6-(trifluoromethyl)imidazo[1,2-a]pyridin-2-yl)-4,4,4-trifluoro-3-methylbutanamide]",,"pEC50 (FLIPR assay, Table 1): 5.52 to 6.30"
"Cc1cc(-c2c(NC(=O)CC(C)(C)C)nc3ccc(F)cn23)ccc1F [Compound 255, N-(6-fluoro-3-(4-fluoro-3-methylphenyl)imidazo[1,2-a]pyridin-2-yl)-3,3-dimethylbutanamide]",> 6.30,
"Cc1ccn2c(-c3ccc(F)cc3)c(NC(=O)Cc3ccc(C(F)(F)F)cc3)nc2c1 [Compound 187, N-(3-(4-fluorophenyl)-7-methylimidazo[1,2-a]pyridin-2-yl)-2-(4-(trifluoromethyl)phenyl)acetamide]",> 6.30,
"O=C(NCCc1ccc(F)cc1)Nc1nc2ccc(F)cn2c1-c1ccc(C(F)(F)F)cc1 [Compound 213, 1-(6-fluoro-3-(4-(trifluoromethyl)phenyl)imidazo[1,2-a]pyridin-2-yl)-3-(4-fluorophenethyl)urea]",5.00 to 5.52,
"O=C(CC1CCCC1)Nc1nc2ccc(F)cn2c1-c1ccc(OC(F)(F)F)cc1 [Compound 170, 2-cyclopentyl-N-(6-fluoro-3-(4-(trifluoromethoxy)phenyl)imidazo[1,2-a]pyridin-2-yl)acetamide]",> 6.30,
"COc1ccc(-c2c(NC(=O)CC(C)(C)C)nc3ccc(F)cn23)cc1C(F)(F)F [Compound 200, N-(6-fluoro-3-(4-methoxy-3-(trifluoromethyl)phenyl)imidazo[1,2-a]pyridin-2-yl)-3,3-dimethylbutanamide]",> 6.30,
"Cc1ccnc(-c2c(NC(=O)CC(C)(C)C)nc3ccc(F)cn23)c1 [Compound 365, N-(6-fluoro-3-(4-methylpyridin-2-yl)imidazo[1,2-a]pyridin-2-yl)-3,3-dimethylbutanamide]",,pEC50 (FLIPR assay (Table 3)): 5.52 to 6.30
"CC(CC(=O)Nc1nc2ccccn2c1CC(C)(C)C)C(F)(F)F (stereo not shown) [Compound 86, 4,4,4-trifluoro-3-methyl-N-(3-neopentylimidazo[1,2-a]pyridin-2-yl)butanamide]",,"pEC50 (FLIPR assay, Table 1): 5.52 to 6.30"
"Cc1ccc2nc(NC(=O)CC(C)(C)C)c(C3CC3)n2n1 [Compound 74, N-(3-cyclopropyl-6-methylimidazo[1,2-b]pyridazin-2-yl)-3,3-dimethylbutanamide]",,"pEC50 (FLIPR assay, Table 1): 5.52 to 6.30"
"O=C(Cc1ccccc1)Nc1nc2ccc(F)cn2c1-c1ccccc1 [Compound 96, N-(6-fluoro-3-phenylimidazo[1,2-a]pyridin-2-yl)-2-phenylacetamide]",5.52 to 6.30,
"N#Cc1ccc(CC(=O)Nc2nc3ccc(F)cn3c2-c2ccc(F)cc2)cc1 [Compound 137, 2-(4-cyanophenyl)-N-(6-fluoro-3-(4-fluorophenyl)imidazo[1,2-a]pyridin-2-yl)acetamide]",5.52 to 6.30,

# The next lines start with results.
"pEC50 (FLIPR assay, Table 2)",SMILES,further results
5.52 to 6.30,"COc1ccc2nc(NC(=O)CC(C)(C)C)c(-c3cccc(C(F)(F)F)c3)n2n1 [Compound 339, N-(6-methoxy-3-(3-(trifluoromethyl)phenyl)imidazo[1,2-b]pyridazin-2-yl)-3,3-dimethylbutanamide]",
5.00 to 5.52,"CC(CC(=O)Nc1nc2ncccn2c1-c1cccc(OC(F)(F)F)c1)C(F)(F)F (stereo not shown) [Compound 325, 4,4,4-trifluoro-3-methyl-N-(3-(3-(trifluoromethoxy)phenyl)imidazo[1,2-a]pyrimidin-2-yl)butanamide]",
5.00 to 5.52,"CC(C)(C)CC(=O)Nc1nc2ncc(Cl)cn2c1-c1cccc(Cl)c1 [Compound 319, N-(6-chloro-3-(3-chlorophenyl)imidazo[1,2-a]pyrimidin-2-yl)-3,3-dimethylbutanamide]",
> 6.30,"CC(CC(=O)Nc1nc2ccc(F)cn2c1-c1cccc(C(F)(F)F)c1)C(F)(F)F (stereo not shown) [Compound 282, 4,4,4-trifluoro-N-(6-fluoro-3-(3-(trifluoromethyl)phenyl)imidazo[1,2-a]pyridin-2-yl)-3-methylbutanamide]",
> 6.30,"CC(C)(C)CC(=O)Nc1nc2ccc(C#N)cn2c1-c1ccc(C(F)(F)F)cc1 [Compound 259, N-(6-cyano-3-(4-(trifluoromethyl)phenyl)imidazo[1,2-a]pyridin-2-yl)-3,3-dimethylbutanamide]",
> 6.30,"O=C(Cc1ccc(C(F)(F)F)cc1)Nc1nc2ccc(F)cn2c1-c1ccc(OC(F)(F)F)c(F)c1 [Compound 297, N-(6-fluoro-3-(3-fluoro-4-(trifluoromethoxy)phenyl)imidazo[1,2-a]pyridin-2-yl)-2-(4-(trifluoromethyl)phenyl)acetamide]",
> 6.30,"O=C(Cc1ccc(F)cc1)Nc1nc2ccccn2c1-c1cccc(OC(F)(F)F)c1 [Compound 344, 2-(4-fluorophenyl)-N-(3-(3-(trifluoromethoxy)phenyl)imidazo[1,2-a]pyridin-2-yl)acetamide]",
